Data as given in patent US12201608B2, “Methods for treating Parkinson's disease by administering resiniferatoxin” (Sorrento Therapeutics, Inc., priority 2018, dated 2025).
“Also recorded” adds a separate entry of the source.

Key:
[1] = system: AAV-A53T mouse model of Parkinson's Disease-like (PD) pathology; test: Fine motor kinematic gait analysis 7 weeks after AAV infusion; type: in vivo, C57Bl/6J male mice; details: for overall gait analysis score: vs AAV1/2-A53T Vehicle
Method: (§1) For this study, a total of 110 male C57Bl/6J mice two months of age were infused with either AAV-A53T (90 mice) or AAV-Null (20 mice) into substantia nigra unilaterally to induce PD-like pathology or to serve as sham controls, respectively. Mice infused with AAV-Null (empty) vector (“sham-infused” mice) were used in order to control for the effect of the viral infusion. After 7 or 14 days of AAV-A53T mediated disease model induction, the mice were treated with RTX (0.04 μg or 0.125 μg) (5 μL volume, prepared from a 25 μg/ml RTX solution containing Polysorbate 80 at 0.03% w/v, dextrose at 0.05% w/v, Phosphate Buffer at 30 mM, and NaCl 0.54% w/v, pH 7.2, and diluted in saline as needed) by single intrathecal infusion at lumbar spinal cord area. One AAV-Null and AAV-A53T infused group per each time point were treated with vehicle instead of RTX.
(§2) The mice were then treated with RTX or vehicle by intrathecal infusion 7 or 14 days after AAV infusion. The mice were assigned to treatment groups as follows: • Group 1: 10 male mice sham-infused with AAV-null, and administered vehicle at D7. • Group 2: 15 male mice infused with AAV-A53T, and administered vehicle at D7. • Group 3: 15 male mice infused with AAV-A53T, and administered 0.04 μg of RTX at D7. • Group 4: 15 male mice infused with AAV-A53T, and administered 0.125 μg of RTX at D7. • Group 5: 10 male mice sham-infused with AAV-null, and administered vehicle at D14. • Group 6: 15 male mice infused with AAV-A53T, and administered vehicle at D14. • Group 7: 15 male mice infused with AAV-A53T, and administered 0.04 μg of RTX at D14. • Group 8: 15 male mice infused with AAV-A53T, and administered 0.125 μg of RTX at D14.
The fine motor skills of the mice were evaluated 7 weeks post infusion (MotoRater, TSE Systems, Homburg, Germany) using walking mode. On the day of testing the mice were marked in appropriate points of body, such as joints of limbs and parts of tail to ease the data analysis process. The movement data was captured using a high-speed camera (300 frames/second) from three different dimensions, from below and both sides. Different gait patterns and movements were analyzed using a custom-made automated analysis system. The analyzed parameters include: 1) general gait pattern parameters (stride time and speed, step width, stance and swing time during a stride, interlimb coordination), 2) body posture and balance (toe clearance, iliac crest and hip height, hind limb protraction and retraction, tail position and movement), and 3) fine motor skills (swing speed during a stride, jerk metric during swing phase, angle ranges and deviations of different joints, vertical and horizontal head movement).
The gait parameters always have several (and complex) inter-correlations. For example, a shorter stride duration and longer step lengths lead to higher speed. Different “gait features”, which are manifested in sets of highly correlating parameters, can be identified using Principal Component Analysis (PCA). Principal Component Analysis is a statistical tool to compact the information in a multivariate data set, reveal correlations between original variables, and ultimately, create a small set of new and sensitive uncorrelated parameters, the principal components (PC).
PCA is a linear transformation based on principal component coefficients and eigenvectors. The transformed, new, uncorrelated variables are called the PC scores. The first principal component (PC) corresponds to such linear combination of data which has the largest possible variance. The second PC has again the largest possible variance of what is left when the proportion of the first PC is discarded, and so on for the rest of the PCs. The eigen vectors also reveal information about the internal structure of the data, i.e., mutually correlated parameters. Each PC score represent combined information of all the parameters which are emphasized in the corresponding PC. […]

[2] = system: dopamine and its metabolite levels in the striatum, AAV-A53T mouse model of PD-like pathology; test: Dopamine and metabolites in ipsilateral and contralateral striatum by HPLC; type: in vivo, C57Bl/6J male mice; details: for dopamine levels in striatum: vs AAV-A53T vehicle
Method: as §1, §2
Body weight of the animals was monitored two times per week. Fine motor kinematic analysis was performed 7 weeks after AAV infusion. 8 weeks post AAV infusion, the mice were euthanized and subjected to tissue sample collection. Dopamine and its metabolites were analyzed from ipsilateral and contralateral striata by high performance liquid chromatography (HPLC).
Ipsi- and contralateral striatum were collected in 1.5 mL Eppendorf tubes, snap-frozen on dry ice (i.e. left and right separately), weighed and stored at −80° C. for HPLC analysis of dopamine and its metabolites.
Dopamine (DA), 3,4-dihydroxyphenylacetic acid (DOPAC) and homovanillic acid (HVA) concentrations in mouse striatal tissue samples were determined by high performance liquid chromatography (HPLC) method with electrochemical detection. After thawing on ice, tissue samples were homogenized (1:10, w/v) in 0.1 M perchloric acid with MSE Soniprep 150 ultrasonic disintegrator (MSE Scientific Instruments, Crawley, UK). Tissue homogenates were centrifuged for 15 min at 15000 g at 4° C. Supernatants were filtered through polypropylene membrane (GHP Acrodisc 13 0.45 μm, Pall Corporation, Ann Arbor, MI, USA) and diluted (1:1) with 0.1 M perchloric acid. The samples were transferred into plastic vials and analyzed immediately.
The ESA HPLC system (ESA Inc., Chelmsford, MA, USA) consists of a 582 solvent delivery system, a DG-1210 vacuum degasser, an 542 autosampler, a 880 thermostatted chamber, an eight-channel CoulArray® 5600 electrochemical array detector equipped with a two-channel 5014B microdialysis cell and a CoulArray® for Windows data acquisition module (version 1.00). The applied potentials are −175 mV (channel 1), +225 mV (channel 2), +350 mV (channel 3) and +450 mV (channel 4). DA and DOPAC are detected on channel 2 and HVA on channel 3. Injection volume is 10 μl.
The analytes were separated on a Zorbax SB-Aq reversed-phase column (2.1×100 mm, 3.5 μm, Agilent Technologies Inc., Little Falls, Wilmington, DE, USA) with a Zorbax SB-Aq precolumn (2.1×12.5 mm, 5 μm) in an isocratic run. The column was maintained at 35° C. The mobile phase was 100 mM monobasic sodium phosphate containing 4.75 mM citric acid monohydrate, 7 mM 1-octanesulfonic acid and 50 μM disodium EDTA-acetonitrile mixture (98:2, v/v). […]

[3] = D7 both doses, vs AAV-A53T Vehicle, p<0.05 unpaired t-test
[4] = D7 high dose, vs AAV-A53T Vehicle, p<0.05 unpaired t-test
[5] = high dose, 7 days after AAV-A53T infusion, statistically non-significant (one-way ANOVA)

C=C(C)[C@]12C[C@@H](C)[C@@]34O[C@](Cc5ccccc5)(O[C@@H]1[C@@H]3C=C(COC(=O)Cc1ccc(O)c(OC)c1)C[C@]1(O)C(=O)C(C)=C[C@@H]41)O2 [RTX, Resiniferatoxin]
diagonal gait [1, 3]: significantly recovered
hip ROM [1, 3]: significantly recovered
hind limb stance time [1, 4]: significantly recovered
hip ROM deviation [1, 4]: significantly recovered
homolateral and homologous gait [1, 4]: significantly recovered
minimum knee angle [1, 4]: significantly recovered
single and double support [1, 4]: significantly recovered
stride time [1, 4]: significantly recovered
support diagonal [1, 4]: significantly recovered
support three [1, 4]: significantly recovered
head rotation ([1]; D14 both doses, vs AAV-A53T Vehicle, p<0.05 unpaired t-test): significantly recovered
hip ROM ([1]; D14 high dose, vs AAV-A53T Vehicle, p<0.05 unpaired t-test): significantly recovered
overall gait analysis score ([1]; RTX 0.04 μg at D7, Dunnett's test p=0.0063): significant treatment effect; also recorded: significantly improved
overall gait analysis score ([1]; RTX 0.125 μg at D7, Dunnett's test p=0.0011): significant treatment effect; also recorded: significantly improved
overall gait analysis score ([1]; both RTX doses at D14, p>0.05 one-way ANOVA): statistically non-significant trend towards the respective AAV-Null group; also recorded: statistically non-significant trending effect; also recorded: not statistically significant; also recorded: trend towards the AAV1/2-Null group
recovery of motor functions / motor skills ([1]; early RTX treatment (D7), analyzed 7 weeks after AAV infusion): significant rescuing effect; also recorded: dose-dependent recovery of motor functions
dopamine and its metabolites levels, treatment effect ([2]; AAV-A53T vehicle groups vs corresponding RTX groups, striata 8 weeks after model induction): no significant effects of RTX treatment; also recorded: no significant treatment effect
dopamine turnover ((DOPAC + HVA) / dopamine) ([2]; both doses, 7 and 14 days after AAV-A53T infusion, statistically non-significant (Kruskal-Wallis test)): minor trend towards even higher turnover rates
DOPAC levels in striatum ([2]; groups treated at day 14): non-significant trend of lower DOPAC levels
HVA levels in striatum ([2]; groups treated at day 14): non-significant trend of lower HVA levels
dopamine levels in striatum ([2]; groups treated at day 14): non-significant trend of lower dopamine levels
DOPAC levels in striatum [2, 5]: minor trend towards higher DOPAC levels
HVA level in striatum [2, 5]: minor trend towards higher concentration
dopamine levels in striatum [2, 5]: minor trend towards higher dopamine levels
